Laboratory results as given in patent publication US20170341980A1, “NOBLE GAS NEUROPROTECTION AND NEUROREGENERATION FROM TREATMENT RELATED NEUROTOXICITY” (NOBLIS THERAPEUTICS, INC., priority 2016, published 2017).

Columns and labels:
[1] = test system: patients with brain metastasis; assay: Clinical trial: cognitive function in brain metastasis patients under fractionated radiation, xenon versus air; format: in vivo, human; conditions: vs air
Experimental: (§1) A clinical trial is conducted in 20 patients with brain metastasis who receive 2 Gy to 100 Gy fractionated over 2-8 weeks. 10 patients are treated with 10-20 liters of 30% xenon every other day during radiation exposure. An additional 10 patients are treated with similar radiation regimen and administered 10-20 liters of air every other day during radiation exposure. […] Furthermore, verbal memory, as measured by the Hopkins Verbal Learning Test-Revised (HVLT-R), Cognitive flexibility as measured with the Controlled Oral Word Association (COWA), Word Fluency has measured with the Controlled Oral Word Association (COWA), Working memory has measured with the Wechsler Adult Intelligence Scale—Digit Span, Processing speed has measured with the Wechsler Adult Intelligence Scale—Digit Symbol, Motor dexterity has measured with the Grooved Pegboard (GP), Functional assessment, as measured by the Functional Assessment of Cancer Therapy-Brain (FACT-Br), all improved in the xenon treated group.

tumor growth = assay: Clinical trial: tumor growth in brain metastasis patients receiving xenon versus air controls; format: in vivo, human; conditions: patients receiving xenon as compared to air controls
Experimental: as §1

[2] = 10-20 liters of 30% xenon every other day during radiation exposure

acceleration of tumor growth (tumor growth): No acceleration of tumor growth
Structure (SMILES): [Xe] [xenon]
cognitive function as measured by HVLT-R Total Recall score (verbal learning and memory test) ([1]; 10-20 liters of 30% xenon every other day during radiation exposure (2 Gy to 100 Gy fractionated over 2-8 weeks), at 3, 8, 12, and 24 weeks): preservation in cognitive function | Cognitive flexibility as measured with the Controlled Oral Word Association (COWA) [1, 2]: improved | Functional assessment, as measured by the Functional Assessment of Cancer Therapy-Brain (FACT-Br) [1, 2]: improved | Motor dexterity measured with the Grooved Pegboard (GP) [1, 2]: improved | Processing speed measured with the Wechsler Adult Intelligence Scale—Digit Symbol [1, 2]: improved | Word Fluency measured with the Controlled Oral Word Association (COWA) [1, 2]: improved | Working memory measured with the Wechsler Adult Intelligence Scale—Digit Span [1, 2]: improved | verbal memory, as measured by the Hopkins Verbal Learning Test-Revised (HVLT-R) [1, 2]: improved
